According to patent publication US10633419B2, “Immunomodulators” (BRISTOL-MYERS SQUIBB COMPANY, priority 2014, dated 2020):
Starred links: 1 amine or outer side, 2 acyl side, 3 side chain; linkers in the order of their positions; H or OH if unused. Positions of bridges follow the written chain, without caps; N, C: chain ends. Non-standard residues stand in square brackets, D forms with d. Residues, ends and D or L forms follow the SMILES beside them. *: point of attachment. X18 = O=C(O)CCCCCCCCCCCCCCC(=O)N[C@@H](CC(=O)NCCCOCCOCCOCCCN*)C(=O)O; Trp(1-CH2COOH) = N[C@@H](Cc1cn(CC(=O)O)c2ccccc12)C(=O)O; X9 = O=C(O)CCCCCCCCCCCCCCCCC(=O)N[C@@H](CCN*)C(=O)O; NH(CH2)14COOH = O=C(O)CCCCCCCCCCCCCCN*; βAsp = O=C(O)[C@H](CC(=O)[*:2])N[*:1]; NH(CH2)12COOH = O=C(O)CCCCCCCCCCCCN*; X19 = O=C(C1C[C@H](O)CN1[*:1])[*:2]; Hyp = O=C(O)[C@@H]1C[C@@H](O)CN1; NHhexadecyl = CCCCCCCCCCCCCCCCN*; dHyp = O=C(O)[C@H]1C[C@H](O)CN1; NMeNle = CCCC[C@H](NC)C(=O)O; Pip = O=C(O)[C@@H]1CCCCN1; NMeA = CN[C@@H](C)C(=O)O; Aun = NCCCCCCCCCCC(=O)O; Dab = NCC[C@H](N)C(=O)O; Dap = NC[C@H](N)C(=O)O; Ava = NCCCCC(=O)O

Target: T1, PD-L1 (Homo sapiens, UniProt Q9NZQ7)
T1 construct: hPDL1(19-239)-TVMV-His; made in house; host or cells: HEK293T
T1 sequence (Q9NZQ7 with tags, fused parts or gaps): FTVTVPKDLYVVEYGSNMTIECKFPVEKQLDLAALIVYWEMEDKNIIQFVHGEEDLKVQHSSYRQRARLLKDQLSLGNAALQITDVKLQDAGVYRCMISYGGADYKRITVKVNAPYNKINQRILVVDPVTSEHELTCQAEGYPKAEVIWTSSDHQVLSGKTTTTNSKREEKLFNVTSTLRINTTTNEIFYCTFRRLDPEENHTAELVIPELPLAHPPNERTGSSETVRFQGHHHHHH
Assay: PD-1/PD-L1 Homogenous Time-Resolved Fluorescence (HTRF) binding assay (PD-1-Ig/PD-L1-His)
Details: inhibition of PD-1-Ig binding to PD-L1-TVMV-His; value given as range class; read-out: HTRF IC50
Text: The ability of the macrocyclic peptides of the present disclosure to bind to PD-L1 was investigated using a PD-1/PD-L1 Homogenous Time-Resolved Fluorescence (HTRF) binding assay.
Homogenous Time-Resolved Fluorescence (HTRF) Assays of Binding of Soluble PD-1 to Soluble PD-L1. Soluble PD-1 and soluble PD-L1 refers to proteins with carboxyl-end truncations that remove the transmembrane-spanning regions and are fused to heterologous sequences, specifically the Fc portion of the human immunoglobuling G sequence (Ig) or the hexahistidine epitope tag (His). All binding studies were performed in an HTRF assay buffer consisting of dPBS supplemented with 0.1% (w/v) bovine serum albumin and 0.05% (v/v) Tween-20. For the PD-1-Ig/PD-L1-His binding assay, inhibitors were pre-incubated with PD-L1-His (10 nM final) for 15 m in 4 μl of assay buffer, followed by addition of PD-1-Ig (20 nM final) in 1 μl of assay buffer and further incubation for 15m. PD-L1 fusion proteins from either human, cynomologous macaques, mouse, or other species were used. HTRF detection was achieved using europium crypate-labeled anti-Ig monoclonal antibody (1 nM final) and allophycocyanin (APC) labeled anti-His monoclonal antibody (20 nM final). Antibodies were diluted in HTRF detection buffer and 5 μl was dispensed on top of binding reaction. The reaction was allowed to equilibrate for 30 minutes and signal (665 nm/620 nm ratio) was obtained using an EnVision fluorometer. Additional binding assays were established between PD-1-Ig/PD-L2-His (20 and 5 nM, respectively), CD80-His/PD-L1-Ig (100 and 10 nM, respectively) and CD80-His/CTLA4-Ig (10 and 5 nM, respectively). Binding/competition studies between biotinylated Compound No. 71 and human PD-L1-His were performed as follows. Macrocyclic peptide inhibitors were pre-incubated with PD-L1-His (10 nM final) for 60 minutes in 4 μl of assay buffer followed by addition of biotinylated Compound No. 71 (0.5 nM final) in 1 μl of assay buffer. Binding was allowed to equilibrate for 30 minutes followed by addition of europium crypated labeled Streptavidin (2.5 pM final) and APC-labeled anti-His (20 nM final) in 5 μl of HTRF buffer. The reaction was allowed to equilibrate for 30m and signal (665 nm/620 nm ratio) was obtained using an EnVision fluorometer.
Recombinant Proteins. Carboxyl-truncated human PD-1 (amino acids 25-167) with a C-terminal human Ig epitope tag [hPD-1 (25-167)-3S-IG] and human PD-L1 (amino acids 18-239) with a C-terminal His epitope tag [hPD-L1(19-239)-tobacco vein mottling virus protease cleavage site (TVMV)-His] were expressed in HEK293T cells and purified sequentially by recombinant Protein A affinity chromatography and size exclusion chromatography. Human PD-L2-His (Sino Biologicals), CD80-His (Sino Biologicals), CTLA4-Ig (RnD Systems) were all obtained through commercial sources.

Compound | IC50
CCCC[C@H]1C(=O)N(C)[C@@H](CCCC)C(=O)N[C@@H](CC(C)C)C(=O)N[C@H](C(=O)NCC(=O)N[C@@H](CC(=O)NCCCCC(=O)NCC[C@H](NC(=O)CCCCCCCCCCCCCCCCC(=O)O)C(=O)O)C(=O)O)CSCC(=O)N[C@@H](Cc2ccc(O)cc2)C(=O)N2CCCC[C@H]2C(=O)N[C@@H](CC(N)=O)C(=O)N2CCC[C@H]2C(=O)N[C@@H](CN)C(=O)N[C@@H](CC(C)C)C(=O)N2C[C@H](O)C[C@H]2C(=O)N[C@@H](Cc2c[nH]c3ccccc23)C(=O)N[C@@H](CCN)C(=O)N[C@@H](Cc2cn(CC(=O)O)c3ccccc23)C(=O)N1C [Example 13164] ({CH2CO}-Y[Pip]NP[Dap]L[Hyp]W[Dab][Trp(1-CH2COOH)][NMeNle][NMeNle]LCG[βAsp][Ava]-X9; thioether N-14) | 0.3 to 9.9 nM
CCCC[C@H]1C(=O)N(C)[C@@H](CCCC)C(=O)N[C@@H](CC(C)C)C(=O)N[C@@H](C(=O)N[C@@H](CC(=O)O)C(=O)N[C@@H](CC(=O)NCCCOCCOCCOCCCNC(=O)C[C@H](NC(=O)CCCCCCCCCCCCCCC(=O)O)C(=O)O)C(=O)O)CSCC(=O)N[C@@H](Cc2ccc(O)cc2)C(=O)N(C)[C@@H](C)C(=O)N[C@@H](CC(N)=O)C(=O)N2CCC[C@@H]2C(=O)N[C@@H](CN)C(=O)N[C@@H](CC(C)C)C(=O)N2C[C@@H](O)CC2C(=O)N[C@@H](Cc2c[nH]c3ccccc23)C(=O)N[C@@H](CCN)C(=O)N[C@@H](Cc2cn(CC(=O)O)c3ccccc23)C(=O)N1C (stereo partly shown) [Example 11244] ({CH2CO}-Y[NMeA]N[dP][Dap]L[X19]W[Dab][Trp(1-CH2COOH)][NMeNle][NMeNle]L[dC]DD(X18)-OH; thioether N-14) | 100 to 1600 nM
CCCC[C@H]1C(=O)N(C)[C@@H](CCCC)C(=O)N[C@@H](CC(C)C)C(=O)N[C@H](C(=O)NCCCCCCCCCCC(=O)N[C@@H](CCC(=O)O)C(=O)O)CSCC(=O)N[C@@H](Cc2ccc(O)cc2)C(=O)N(C)[C@@H](C)C(=O)N[C@@H](CC(N)=O)C(=O)N2CCC[C@H]2C(=O)N[C@@H](Cc2cnc[nH]2)C(=O)N[C@@H](CCC(=O)O)C(=O)N2C[C@H](O)C[C@H]2C(=O)N[C@@H](Cc2c[nH]c3ccccc23)C(=O)N[C@@H](CCN)C(=O)N[C@@H](Cc2c[nH]c3ccccc23)C(=O)N1C [Example 11130] ({CH2CO}-Y[NMeA]NPHE[Hyp]W[Dab]W[NMeNle][NMeNle]LC[Aun]E-OH; thioether N-14) | 10 to 99 nM
CCCC[C@H]1C(=O)N(C)[C@@H](CCCC)C(=O)N[C@@H](CCC(=O)O)C(=O)N[C@H](C(=O)NCC(=O)N[C@@H](Cc2cn(CC[C@H](NC(=O)CCCCCCCCCCCCCCCCC(=O)O)C(=O)O)nn2)C(=O)O)CSCC(=O)N[C@@H](Cc2ccc(OC)cc2)C(=O)N2CCCC[C@H]2C(=O)N[C@@H](CC(=O)O)C(=O)N2CCC[C@H]2C(=O)N[C@@H](CN)C(=O)N[C@@H](CCC(N)=O)C(=O)N2C[C@H](O)C[C@H]2C(=O)N[C@@H](Cc2c[nH]c3ccccc23)C(=O)N[C@@H](CCN)C(=O)N[C@@H](Cc2cn(CC(=O)O)c3ccccc23)C(=O)N1C [Example 14121] | 10 to 99 nM
CCCC[C@H]1C(=O)N(C)[C@@H](CCCC)C(=O)N[C@@H](CC(C)C)C(=O)N[C@H](C(=O)NCC(=O)N[C@H](CC(=O)O)C(=O)NCCCCCCCCCCCCCCC(=O)O)CSCC(=O)N[C@@H](Cc2ccc(O)cc2)C(=O)N(C)[C@@H](C)C(=O)N[C@@H](CC(N)=O)C(=O)N2CCC[C@H]2C(=O)N[C@@H](CN)C(=O)N[C@@H](CC(C)C)C(=O)N2C[C@H](O)C[C@H]2C(=O)N[C@@H](Cc2c[nH]c3ccccc23)C(=O)N[C@@H](CCN)C(=O)N[C@@H](Cc2cn(CC(=O)O)c3ccccc23)C(=O)N1C [Example 11195] ({CH2CO}-Y[NMeA]NP[Dap]L[Hyp]W[Dab][Trp(1-CH2COOH)][NMeNle][NMeNle]LCG[dD]-{NH(CH2)14COOH}; thioether N-14) | 10 to 99 nM
CCCCCCCCCCCCCCCCNC(=O)CCCCCCCCCCNC(=O)CNC(=O)[C@@H]1CSCC(=O)N[C@@H](Cc2ccc(O)cc2)C(=O)N(C)[C@@H](C)C(=O)N[C@@H](CC(N)=O)C(=O)N2CCC[C@H]2C(=O)N[C@@H](Cc2cnc[nH]2)C(=O)N[C@@H](CC(C)C)C(=O)N2C[C@H](O)C[C@H]2C(=O)N[C@@H](Cc2c[nH]c3ccccc23)C(=O)N[C@@H](CO)C(=O)N[C@@H](Cc2c[nH]c3ccccc23)C(=O)N(C)[C@@H](CCCC)C(=O)N(C)[C@@H](CCCC)C(=O)N[C@@H](CCCNC(=N)N)C(=O)N1 [Example 11112] ({CH2CO}-Y[NMeA]NPHL[Hyp]WSW[NMeNle][NMeNle]RCG[Aun]-NHhexadecyl; thioether N-14) | 100 to 1600 nM
CCCC[C@H]1C(=O)N(C)[C@@H](CCCC)C(=O)N[C@@H](CC(C)C)C(=O)N[C@H](C(=O)NCCCOCCOCCOCCCNC(=O)C[C@H](NC(=O)CCCCCCCCCCCCCCC(=O)O)C(=O)O)CSCC(=O)N[C@@H](Cc2ccc(O)cc2)C(=O)N(C)[C@@H](C)C(=O)N[C@@H](CC(N)=O)C(=O)N2CCC[C@@H]2C(=O)N[C@@H](CN)C(=O)N[C@@H](CC(C)C)C(=O)N2C[C@@H](O)C[C@@H]2C(=O)N[C@@H](Cc2c[nH]c3ccccc23)C(=O)N[C@@H](CCN)C(=O)N[C@@H](Cc2cn(CC(=O)O)c3ccccc23)C(=O)N1C [Example 11242] ({CH2CO}-Y[NMeA]N[dP][Dap]L[dHyp]W[Dab][Trp(1-CH2COOH)][NMeNle][NMeNle]LC-X18; thioether N-14) | 10 to 99 nM
CCCCCCCCCCCCCCCC(=O)N[C@@H](CCn1cc(C[C@H](NC(=O)CNC(=O)[C@@H]2CSCC(=O)N[C@@H](Cc3ccc(O)cc3)C(=O)N(C)[C@@H](C)C(=O)N[C@@H](CC(=O)O)C(=O)N3CCC[C@H]3C(=O)N[C@@H](Cc3c[nH]cn3)C(=O)N[C@@H](CCCCN)C(=O)N3C[C@H](O)C[C@H]3C(=O)N[C@@H](Cc3c[nH]c4ccccc34)C(=O)N[C@@H](CCCCN)C(=O)N[C@@H](Cc3c[nH]c4ccccc34)C(=O)N(C)[C@@H](CCCC)C(=O)N(C)[C@@H](CCCC)C(=O)N[C@@H](CCC(=O)O)C(=O)N2)C(=O)N[C@@H](CC(=O)O)C(N)=O)nn1)C(=O)O [Example 14061] | 10 to 99 nM
CCCC[C@H]1C(=O)N(C)[C@@H](CCCC)C(=O)N[C@@H](CC(C)C)C(=O)N[C@H](C(=O)NCCCCCCCCCCC(=O)N[C@@H](CC(=O)O)C(=O)O)CSCC(=O)N[C@@H](Cc2ccc(O)cc2)C(=O)N(C)[C@@H](C)C(=O)N[C@@H](CC(N)=O)C(=O)N2CCC[C@H]2C(=O)N[C@@H](Cc2cnc[nH]2)C(=O)N[C@@H](CCC(=O)O)C(=O)N2C[C@H](O)C[C@H]2C(=O)N[C@@H](Cc2c[nH]c3ccccc23)C(=O)N[C@@H](CCN)C(=O)N[C@@H](Cc2c[nH]c3ccccc23)C(=O)N1C [Example 11129] ({CH2CO}-Y[NMeA]NPHE[Hyp]W[Dab]W[NMeNle][NMeNle]LC[Aun]D-OH; thioether N-14) | 10 to 99 nM
CCCC[C@H]1C(=O)N(C)[C@@H](CCCC)C(=O)N[C@@H](CC(C)C)C(=O)N[C@H](C(=O)NCC(=O)NCC(=O)NCC(=O)NCCCCCCCCCCCCC(=O)O)CSCC(=O)N[C@@H](Cc2ccc(O)cc2)C(=O)N(C)[C@@H](C)C(=O)N[C@@H](CC(N)=O)C(=O)N2CCC[C@H]2C(=O)N[C@@H](CN)C(=O)N[C@@H](CC(C)C)C(=O)N2C[C@H](O)C[C@H]2C(=O)N[C@@H](Cc2c[nH]c3ccccc23)C(=O)N[C@@H](CCN)C(=O)N[C@@H](Cc2cn(CC(=O)O)c3ccccc23)C(=O)N1C [Example 11215] ({CH2CO}-Y[NMeA]NP[Dap]L[Hyp]W[Dab][Trp(1-CH2COOH)][NMeNle][NMeNle]LCGGG-{NH(CH2)12COOH}; thioether N-14) | 10 to 99 nM
